Test results: ChEMBL document CHEMBL2216752, “Carnitine palmitoyltransferase (CPT) modulators: a medicinal chemistry perspective on 35 years of research” (J Med Chem, 2011)
pIC50: −log10 of the molar value.

Legend:
[1] = Inhibition of rat FAO
[2] = Inhibition of human FAO
[3] = molecular target: T1, Carnitine O-palmitoyltransferase 2, mitochondrial (Homo sapiens, UniProt P23786); assay: Inhibition of human CPT2
T1 sequence (P23786 whole entry): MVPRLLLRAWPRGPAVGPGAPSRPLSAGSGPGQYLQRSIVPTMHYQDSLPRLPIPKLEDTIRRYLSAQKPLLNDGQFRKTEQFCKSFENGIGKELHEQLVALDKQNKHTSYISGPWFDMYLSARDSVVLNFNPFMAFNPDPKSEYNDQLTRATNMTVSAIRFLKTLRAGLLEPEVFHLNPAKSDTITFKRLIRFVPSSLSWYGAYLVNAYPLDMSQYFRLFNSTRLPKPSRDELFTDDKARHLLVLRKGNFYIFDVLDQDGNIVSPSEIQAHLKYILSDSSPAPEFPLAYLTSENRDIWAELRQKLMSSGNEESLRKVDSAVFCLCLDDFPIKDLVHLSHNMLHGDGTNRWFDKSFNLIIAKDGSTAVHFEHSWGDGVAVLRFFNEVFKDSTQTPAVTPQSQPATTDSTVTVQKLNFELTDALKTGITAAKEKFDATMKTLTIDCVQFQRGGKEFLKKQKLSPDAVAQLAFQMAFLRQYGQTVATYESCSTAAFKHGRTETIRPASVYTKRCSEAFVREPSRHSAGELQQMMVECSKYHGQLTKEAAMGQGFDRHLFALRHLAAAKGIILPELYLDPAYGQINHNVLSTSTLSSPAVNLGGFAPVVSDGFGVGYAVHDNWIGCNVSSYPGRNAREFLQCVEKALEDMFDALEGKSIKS

[4] = molecular target: T2, Carnitine O-palmitoyltransferase 1, liver isoform (Homo sapiens, UniProt P50416); assay: Inhibition of human CPT1A
T2 sequence (P50416 whole entry): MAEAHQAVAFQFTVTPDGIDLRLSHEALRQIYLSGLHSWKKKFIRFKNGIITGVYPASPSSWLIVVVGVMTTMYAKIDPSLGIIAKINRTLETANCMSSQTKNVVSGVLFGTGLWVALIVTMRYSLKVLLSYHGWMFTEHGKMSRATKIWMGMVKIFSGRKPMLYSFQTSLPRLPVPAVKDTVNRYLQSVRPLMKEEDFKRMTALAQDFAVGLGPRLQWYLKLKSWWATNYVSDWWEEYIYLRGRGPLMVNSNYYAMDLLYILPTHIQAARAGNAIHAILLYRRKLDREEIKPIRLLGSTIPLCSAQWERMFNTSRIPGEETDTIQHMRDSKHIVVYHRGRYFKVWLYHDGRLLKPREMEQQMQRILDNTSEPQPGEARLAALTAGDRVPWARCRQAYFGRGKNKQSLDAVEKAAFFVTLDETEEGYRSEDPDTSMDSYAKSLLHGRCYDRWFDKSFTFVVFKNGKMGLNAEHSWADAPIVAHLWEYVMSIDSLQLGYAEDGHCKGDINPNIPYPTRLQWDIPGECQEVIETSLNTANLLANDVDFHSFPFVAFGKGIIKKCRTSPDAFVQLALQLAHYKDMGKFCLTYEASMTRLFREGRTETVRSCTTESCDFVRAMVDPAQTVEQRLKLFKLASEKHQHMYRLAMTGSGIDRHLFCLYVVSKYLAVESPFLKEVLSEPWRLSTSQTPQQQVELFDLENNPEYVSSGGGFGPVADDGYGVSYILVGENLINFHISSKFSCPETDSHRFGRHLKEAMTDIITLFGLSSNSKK

[5] = molecular target: T3, Carnitine O-palmitoyltransferase 2, mitochondrial (Rattus norvegicus, UniProt P18886); assay: Inhibition of rat CPT2
T3 sequence (P18886 whole entry): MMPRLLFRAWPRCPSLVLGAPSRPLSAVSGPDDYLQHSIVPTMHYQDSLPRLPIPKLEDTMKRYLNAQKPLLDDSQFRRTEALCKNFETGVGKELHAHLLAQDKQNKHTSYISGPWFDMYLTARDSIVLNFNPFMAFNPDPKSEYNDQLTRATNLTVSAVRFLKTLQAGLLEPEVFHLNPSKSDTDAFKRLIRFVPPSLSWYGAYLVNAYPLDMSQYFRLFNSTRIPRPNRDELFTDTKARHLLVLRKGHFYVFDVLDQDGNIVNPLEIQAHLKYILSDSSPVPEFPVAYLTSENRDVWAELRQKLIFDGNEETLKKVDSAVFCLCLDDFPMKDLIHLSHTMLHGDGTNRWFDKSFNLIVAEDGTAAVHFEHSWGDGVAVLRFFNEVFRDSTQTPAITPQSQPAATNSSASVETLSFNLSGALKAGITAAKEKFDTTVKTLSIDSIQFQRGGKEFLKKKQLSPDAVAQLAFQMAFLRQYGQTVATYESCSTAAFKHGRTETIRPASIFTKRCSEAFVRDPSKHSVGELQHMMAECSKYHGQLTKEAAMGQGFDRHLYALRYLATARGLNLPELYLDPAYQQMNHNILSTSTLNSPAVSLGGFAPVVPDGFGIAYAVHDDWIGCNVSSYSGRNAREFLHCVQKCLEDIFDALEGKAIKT

[6] = molecular target: T4, Carnitine O-palmitoyltransferase 1, muscle isoform (Homo sapiens, UniProt Q92523); assay: Inhibition of human CPT1B
T4 sequence (Q92523 whole entry): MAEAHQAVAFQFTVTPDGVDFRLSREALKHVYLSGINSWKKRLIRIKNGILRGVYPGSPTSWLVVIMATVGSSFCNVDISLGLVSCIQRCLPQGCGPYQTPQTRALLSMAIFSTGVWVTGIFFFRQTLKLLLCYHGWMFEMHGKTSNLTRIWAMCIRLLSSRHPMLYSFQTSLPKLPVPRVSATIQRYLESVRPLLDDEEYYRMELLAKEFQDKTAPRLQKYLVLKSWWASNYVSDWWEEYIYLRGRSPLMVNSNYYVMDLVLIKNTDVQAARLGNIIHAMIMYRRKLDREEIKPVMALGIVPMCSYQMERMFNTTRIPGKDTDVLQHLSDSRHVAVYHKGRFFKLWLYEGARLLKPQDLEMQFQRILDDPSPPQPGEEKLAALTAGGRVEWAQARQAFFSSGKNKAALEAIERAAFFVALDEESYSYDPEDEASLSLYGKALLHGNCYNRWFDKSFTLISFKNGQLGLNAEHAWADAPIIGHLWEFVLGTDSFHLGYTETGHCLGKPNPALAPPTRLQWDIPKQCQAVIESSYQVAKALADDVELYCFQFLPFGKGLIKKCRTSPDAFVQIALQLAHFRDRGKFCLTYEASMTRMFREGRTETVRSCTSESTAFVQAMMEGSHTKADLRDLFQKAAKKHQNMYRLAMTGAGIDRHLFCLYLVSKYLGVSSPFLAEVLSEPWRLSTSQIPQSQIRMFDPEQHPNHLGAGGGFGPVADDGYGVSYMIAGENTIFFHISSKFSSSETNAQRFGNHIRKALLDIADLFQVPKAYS

[7] = molecular target: T4, Carnitine O-palmitoyltransferase 1, muscle isoform; assay: Inhibition of CPT1B in liver mitochondria
[8] = molecular target: T4, Carnitine O-palmitoyltransferase 1, muscle isoform; assay: Inhibition of CPT1B in heart mitochondria
[9] = molecular target: T5, Carnitine O-palmitoyltransferase 1, liver isoform (Rattus norvegicus, UniProt P32198); assay: Inhibition of rat CPT1A
T5 sequence (P32198 whole entry): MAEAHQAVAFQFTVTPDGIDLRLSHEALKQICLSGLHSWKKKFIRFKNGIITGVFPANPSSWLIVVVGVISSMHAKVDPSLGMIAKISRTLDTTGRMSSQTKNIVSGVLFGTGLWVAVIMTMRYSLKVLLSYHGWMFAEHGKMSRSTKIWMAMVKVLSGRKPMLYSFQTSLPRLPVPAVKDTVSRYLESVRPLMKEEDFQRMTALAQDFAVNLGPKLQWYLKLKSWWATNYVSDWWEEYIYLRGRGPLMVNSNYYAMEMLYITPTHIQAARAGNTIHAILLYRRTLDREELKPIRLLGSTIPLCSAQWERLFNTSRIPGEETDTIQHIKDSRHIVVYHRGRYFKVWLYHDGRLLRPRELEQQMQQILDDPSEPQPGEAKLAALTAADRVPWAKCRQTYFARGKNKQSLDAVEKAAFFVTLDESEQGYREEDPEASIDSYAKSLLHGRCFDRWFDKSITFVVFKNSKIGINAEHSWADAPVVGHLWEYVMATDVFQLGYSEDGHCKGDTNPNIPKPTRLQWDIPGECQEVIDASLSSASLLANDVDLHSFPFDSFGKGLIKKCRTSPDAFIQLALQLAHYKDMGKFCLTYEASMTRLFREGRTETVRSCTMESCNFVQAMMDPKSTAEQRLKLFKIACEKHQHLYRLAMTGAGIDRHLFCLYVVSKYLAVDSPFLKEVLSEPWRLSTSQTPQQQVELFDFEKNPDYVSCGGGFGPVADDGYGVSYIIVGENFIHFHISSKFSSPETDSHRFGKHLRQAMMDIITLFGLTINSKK

[10] = molecular target: Carnitine O-palmitoyltransferase 1, muscle isoform (Rattus norvegicus, UniProt Q63704); assay: Inhibition of […] in rat myocardium; format: tissue-based
Sequence of Carnitine O-palmitoyltransferase 1, muscle isoform (Rattus norvegicus, UniProt Q63704) (Q63704 whole entry, canonical isoform): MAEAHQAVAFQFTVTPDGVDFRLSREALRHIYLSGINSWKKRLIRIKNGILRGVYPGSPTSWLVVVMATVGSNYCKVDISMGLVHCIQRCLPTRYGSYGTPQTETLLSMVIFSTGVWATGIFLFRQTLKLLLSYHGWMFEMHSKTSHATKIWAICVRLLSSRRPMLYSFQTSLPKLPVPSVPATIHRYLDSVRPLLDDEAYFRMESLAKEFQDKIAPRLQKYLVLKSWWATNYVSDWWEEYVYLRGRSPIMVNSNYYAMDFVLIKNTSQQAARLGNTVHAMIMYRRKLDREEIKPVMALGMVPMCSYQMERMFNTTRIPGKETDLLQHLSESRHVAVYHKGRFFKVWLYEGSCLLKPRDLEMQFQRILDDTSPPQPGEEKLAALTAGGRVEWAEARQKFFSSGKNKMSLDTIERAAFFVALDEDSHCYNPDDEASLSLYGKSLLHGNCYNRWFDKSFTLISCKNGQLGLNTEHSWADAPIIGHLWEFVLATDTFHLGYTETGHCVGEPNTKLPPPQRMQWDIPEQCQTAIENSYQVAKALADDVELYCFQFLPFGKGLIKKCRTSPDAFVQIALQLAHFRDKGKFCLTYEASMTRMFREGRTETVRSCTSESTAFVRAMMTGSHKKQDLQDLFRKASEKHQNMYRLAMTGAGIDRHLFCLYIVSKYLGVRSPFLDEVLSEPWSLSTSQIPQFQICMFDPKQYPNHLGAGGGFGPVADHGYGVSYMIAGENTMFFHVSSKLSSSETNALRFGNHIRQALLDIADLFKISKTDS

[11] = molecular target: T5, Carnitine O-palmitoyltransferase 1, liver isoform; assay: Inhibition of CPT1 in rat liver mitochondria using [3H]carnitine by radiometric method
[12] = molecular target: T3, Carnitine O-palmitoyltransferase 2, mitochondrial; assay: Inhibition of CPT2 in rat mitochondria using [3H]carnitine by radiometric method
[13] = molecular target: Carnitine O-palmitoyltransferase 1, muscle isoform (Rattus norvegicus) (UniProt Q63704); assay: Inhibition of CPT1 in rat cardiac mitochondria using [3H]carnitine by radiometric method
Sequence of Carnitine O-palmitoyltransferase 1, muscle isoform (Rattus norvegicus) (Q63704 whole entry, looked up, canonical isoform): as the sequence (Q63704 whole entry, canonical isoform) above

[14] = Inhibition of FAO in hepatocytes; format: cell-based; details: hepatocyte

Row | Structure (SMILES) | pIC50 [1] | pIC50 [2] | pIC50 [3] | pIC50 [4] | pIC50 [5] | pIC50 [6] | pIC50 [7] | pIC50 [8] | pIC50 [9] | pIC50 [10] | pIC50 [11] | pIC50 [12] | pIC50 [13] | pIC50 [14]
1 | O=C(O)C(=O)c1ccc(O)cc1 | < 4.00 | 4.48 | < 4.00 | < 4.00 | < 4.00 | 4.22 | 3.29 | 4.96 | – | – | – | – | – | –
2 | CCCCc1ccc(NC(=O)OCCN2CCCCC2CC(C2CCCCC2)C2CCCCC2)cc1 (stereo not given) | – | – | – | – | < 5.00 | – | – | – | < 5.00 | – | – | – | – | –
3 | COc1ccc(CN2CCNCC2)c(OC)c1OC [TRIMETAZIDINE] | < 4.00 | 4.69 | < 4.00 | < 4.00 | – | < 4.00 | – | – | – | 5.89 | – | – | – | –
4 | C1CCC(C(CC2CCCCN2)C2CCCCC2)CC1 (stereo not given) [PERHEXILINE] | 4.67 | 4.65 | 4.14 | < 4.00 | – | < 4.00 | – | – | – | – | 3.83 | 4.10 | 4.11 | –
5 | CCCCCCOc1cccc(OCCCCCC(=O)NC2(CC(=O)[O-])CC[N+](C)(C)CC2)c1 | – | – | – | – | – | – | – | – | – | – | – | – | – | 4.72
